From US20230174526A1, “BENZOTHIAZOLYL BIARYL COMPOUND, AND PREPARATION METHOD AND USE” (SHANGHAI RINGENE BIOPHARMA CO., LTD., priority 2020, published 2023)

Columns and labels:
[1] = target: T1, CYP2C8 (Homo sapiens, UniProt P10632); test: Direct inhibition test (DI test), CYP2C8; assay type: in vitro ADME; conditions: human liver microsomes
T1 sequence (P10632 1-490): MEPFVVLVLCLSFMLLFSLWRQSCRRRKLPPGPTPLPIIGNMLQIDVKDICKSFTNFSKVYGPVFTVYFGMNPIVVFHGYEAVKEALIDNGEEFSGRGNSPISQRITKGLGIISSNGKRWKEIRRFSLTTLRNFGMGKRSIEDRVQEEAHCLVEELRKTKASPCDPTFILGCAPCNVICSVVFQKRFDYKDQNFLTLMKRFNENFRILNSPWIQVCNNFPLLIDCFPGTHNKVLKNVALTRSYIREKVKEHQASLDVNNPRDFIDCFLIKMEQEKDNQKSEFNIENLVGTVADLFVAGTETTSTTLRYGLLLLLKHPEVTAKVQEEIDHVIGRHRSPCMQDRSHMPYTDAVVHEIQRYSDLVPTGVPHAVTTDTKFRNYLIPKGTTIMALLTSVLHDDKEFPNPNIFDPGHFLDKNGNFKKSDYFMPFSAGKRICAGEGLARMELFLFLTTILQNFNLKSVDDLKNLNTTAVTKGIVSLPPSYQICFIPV

[2] = target: T2, CYP2C19 (Homo sapiens, UniProt P33261); test: Direct inhibition test (DI test), CYP2C19; assay type: in vitro ADME; conditions: human liver microsomes
T2 construct: a system of 100 µL of human liver microsomes (final concentration 0.2 mg/mL); from tissue; host or cells: human liver microsomes
Experimental: (§1) Direct inhibition test (DI test): direct inhibition warm incubation was performed with a system of 100 µL of human liver microsomes (final concentration 0.2 mg/mL) containing NADPH (final concentration 1 mM), 10 µM compound, positive inhibitor cocktail (ketoconazole 10 µM, quinidine 10 µM, sulfobenzyrazole 100 µM, α-naphthoflavone 10 µM, tranylcypromine 1000 µM), a negative control (BPS with 0.1% DMSO) and a mixed probe substrate (midazolam 10 µM, testosterone 100 µM, dextromethorphan 10 µM, diclofenac 20 µM, phenacetin100 µM, mephenytoin100 µM), and the reaction was terminated after a warm incubation for 20 min.The relative enzyme activity was calculated by measuring the relative amount of metabolites produced.

[3] = target: T3, KRAS^G12C/SOS1 (Homo sapiens, UniProt P01116, G12C); test: KRAS^G12C/SOS1 protein-protein interaction Binding assay (CisBio kit); conditions: class symbols
T3 construct: purchased CisBio
Experimental: CisBio’s KRAS^G12C/SOS1 kit was used to test the efficacy of the compound on inhibiting the protein-protein interaction between SOS1 and KRAS^G12Cby Binding assay.Results were expressed as IC50values.
Test methods: (1) the test compound was tested at a concentration of 1000 nM. Diluted to 3-fold diluted compound of a 200-fold final concentration of 100% DMSO solution in a 384-well plate at 10 concentrations. 50 nL of 200-fold final concentration of compound was transferred to the destination plate 384 well plate using a dispenser Echo 550.50 nL of 100% DMSO was added to the negative control wells and positive control wells; (2) 4-fold final concentration of Tag1 SOS1 solution was prepared using Diluent buffer; (3) 2.5 µL of 4-fold final concentration of Tag1 SOS1 solution was added to the 384-well plate; (4) 4-fold final concentration of Tag2 KRAS^G12C solution was prepared using Diluent buffer; (5) 2.5 µL of 4-fold final concentration of Tag2 KRAS^G12C solution was added to compound wells and positive control wells, respectively; 2.5 µL of diluent buffer was added to negative control wells; (6) the 384-well plate was centrifuged at 1000 rpm for 30 seconds, shaken and mixed, and incubated at room temperature for 15 min; (7) 1-fold final concentration of Anti Tag1 TB3+ solution and 1-fold final concentration of Anti Tag2 XL665 solution were prepared with Detection buffer, and 5 µL of the mixture was added to each well after mixing the two solutions; (8) the 384-well plate was centrifuged at 1000 rpm for 30 seconds, shaken and mixed, and incubated at room temperature for 120 minutes; (9) the Envision enzyme marker was used to read
Em665/620; (10) data analysis, calculation formula; where Min signal is the mean value of negative control wells, Max signal is the mean value of positive control wells.The log value of concentration was used as the X-axis and the percentage inhibition as the Y-axis to fit the quantitative efficacy curve using the log(inhibitor) vs. response Variable slope of the quantitative efficacy curve of the analytical software GraphPad Prism 5 to derive the IC50 value of each compound on the enzyme activity.The fitting formula was: Y=Bottom+(Top Bottom)/(1+10^A((LogIC50X)^∗ HillSlope)).

[4] = target: T4, CYP3A4 (Homo sapiens, UniProt P08684); test: Direct inhibition test (DI test), CYP3A4; assay type: in vitro ADME; conditions: human liver microsomes
T4 construct: a system of 100 µL of human liver microsomes (final concentration 0.2 mg/mL); from tissue; host or cells: human liver microsomes
Experimental: as §1

[5] = In vivo pharmacokinetic parameter testing in mice; parameters: species or system ICR mice; conditions: for AUC(0-t) / clearance / half-life: male, ICR, mouse, plasma, iv(1 mg/kg); for AUC(0-t): read-out: Below the curve and AUC0-t; for clearance: read-out: Clearance rate Cl; for half-life: read-out: Half-life T½ (converted)
[6] = system: NCI-H358 (lung cancer) cells; test: Proliferation test method 1 (2D, MTT), NCI-H358; assay type: cell-based; conditions: Homo sapiens, 5-7 days, read-out: IC50 proliferation inhibitory activity against NCI-H358
Experimental: Test method 1 (2D):NCI-H358 (lung cancer) and MiaPaca-2 cells (pancreatic cancer) cells (100 µL/well, 20,000 cells/mL) were inoculated in 96-well culture plates supplemented with 10% fetal bovine serum and 1% penicillin/streptomycin sulfate, respectively.Using 0.5% dimethyl sulfoxide as a blank control, cells were treated with a solution of the compound to be tested at a starting concentration of 10 µM, tripled diluted testing solution of the compound in eight gradients were used to treat cells, and then incubated in a 5% CO2 incubator for a certain period of time (5-7 days).At the end of incubation, 10 µL of MTT stock solution (5 mg/mL) was added to each well.The culture plates were incubated at 37° C. for 4 h and then the medium was removed.Dimethyl sulfoxide (100 µL) was added to each well and then shaken sufficiently. The absorbance of the product formazanwas measured at 570 nm on the Thermo Scientific Varioskan Flash multimode reader.IC50 values were obtained by fitting dose-response data into a three-parameter nonlinear regression model using GraphPad Prism 6.0 software.

[7] = system: phosphorylated ERK levels of NCI-H358; test: ERK phosphorylation (western blot), H358; assay type: cell-based; conditions: Homo sapiens, 3 h
Experimental: (§2) Test method 3 (ERK phosphorylation): Miapaca-2 or H358 cells were inoculated at certain concentrations in 96-well plates and incubated overnight at 37° C., 5% CO2 in a cell culture incubator, and serial dilutions of the test compound (5 concentrations, 3-fold dilution) were added to the plates the next day for 24 h (Miapaca-2) or 3 h (H358), then lysis solution containing protease and phosphatase inhibitor were added to lyse the cells to extract proteins and western blot method was used to detect the level of p-ERK.

[8] = system: phosphorylated ERK levels of MiaPaca-2; test: ERK phosphorylation (western blot), MiaPaca-2; assay type: cell-based; conditions: Homo sapiens, MIA PaCa-2, 24 h
Experimental: as §2

T2 sequence (P33261 whole entry): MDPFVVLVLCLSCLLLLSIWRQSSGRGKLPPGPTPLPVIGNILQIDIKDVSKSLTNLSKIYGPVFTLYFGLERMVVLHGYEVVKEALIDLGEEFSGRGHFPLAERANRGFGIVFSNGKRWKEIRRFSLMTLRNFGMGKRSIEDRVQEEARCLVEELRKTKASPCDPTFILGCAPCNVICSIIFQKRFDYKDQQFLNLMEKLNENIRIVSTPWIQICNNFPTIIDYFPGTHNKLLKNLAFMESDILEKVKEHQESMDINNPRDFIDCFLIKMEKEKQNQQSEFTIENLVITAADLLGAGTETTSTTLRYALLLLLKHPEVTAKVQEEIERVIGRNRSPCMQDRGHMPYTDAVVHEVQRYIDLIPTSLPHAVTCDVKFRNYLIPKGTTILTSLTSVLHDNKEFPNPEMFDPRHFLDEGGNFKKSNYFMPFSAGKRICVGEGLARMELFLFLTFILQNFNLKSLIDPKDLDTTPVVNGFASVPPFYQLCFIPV
T3 sequence (P01116 1-188 isoform P01116-2 G12C): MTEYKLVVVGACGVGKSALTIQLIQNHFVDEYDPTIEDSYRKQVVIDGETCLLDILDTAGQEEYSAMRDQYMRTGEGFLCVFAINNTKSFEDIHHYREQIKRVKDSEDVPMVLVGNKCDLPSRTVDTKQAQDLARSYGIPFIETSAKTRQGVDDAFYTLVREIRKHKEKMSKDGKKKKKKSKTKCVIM
T4 sequence (P08684 whole entry): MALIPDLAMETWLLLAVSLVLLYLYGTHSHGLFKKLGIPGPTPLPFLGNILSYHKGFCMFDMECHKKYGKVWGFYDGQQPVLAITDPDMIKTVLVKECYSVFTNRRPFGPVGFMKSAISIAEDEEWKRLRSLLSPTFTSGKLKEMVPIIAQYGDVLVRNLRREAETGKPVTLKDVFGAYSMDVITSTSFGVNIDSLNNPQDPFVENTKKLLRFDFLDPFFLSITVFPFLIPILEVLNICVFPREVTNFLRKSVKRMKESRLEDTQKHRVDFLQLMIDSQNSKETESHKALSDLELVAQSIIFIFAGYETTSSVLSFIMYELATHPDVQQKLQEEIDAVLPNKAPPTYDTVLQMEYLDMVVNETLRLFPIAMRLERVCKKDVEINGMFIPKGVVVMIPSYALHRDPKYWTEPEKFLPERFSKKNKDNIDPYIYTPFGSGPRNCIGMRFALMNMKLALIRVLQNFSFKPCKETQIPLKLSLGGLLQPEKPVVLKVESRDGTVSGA

| Compound | IC50 at 20 min [1] [nM] | IC50 [2] [nM] | IC50 [3] [nM] | IC50 [4] [nM] | AUC compared to the comparative compound 1 ([5]; in words) | clearance rate Cl compared to the comparative compound 1 ([5]; in words) | pharmacokinetic properties in mice compared to comparative compound 1 ([5]; in words) | AUC(0-t) [5] [µM·h] | clearance [5] [mL/min/kg] | half-life [5] [h] | IC50 [6] [nM] | in vivo metabolic half-life compared to the comparative compound 1 ([5]; in words) | IC50 [7] [nM] | IC50 [8] [nM] |
| --- | --- | --- | --- | --- | --- | --- | --- | --- | --- | --- | --- | --- | --- | --- |
| C=CC(=O)N1C[C@@H]2C(=O)N(C)c3cnc4c(F)c(-c5ccc(F)c6sc(N)nc56)c(Cl)cc4c3N2C[C@H]1C (single isomer, unassigned) [Example 17-1] | > 10000 | > 10000 | 50 to 200 | > 10000 | significantly increased | significantly lower | significantly better | 3.31 ± 0.187 | 9.04 ± 0.5 | 1.1 | – | – | – | – |
| C=CC(=O)N1CCN(c2c(C#N)cnc3c(F)c(-c4ccc(F)c5sc(N)nc45)c(Cl)cc23)CC1 [Example 8] | > 10000 | > 10000 | < 50 | > 10000 | significantly increased | significantly lower | significantly better | 2.85 ± 0.363 | 11.5 ± 1.52 | 0.52 | < 100 | – | < 500 | < 500 |
| C=CC(=O)N1CCN(c2nc(OC[C@@H]3CCCN3C)nc3c(F)c(-c4ccc(F)c5sc(N)nc45)c(Cl)cc23)C[C@H]1C [Example 11, 1-((2R)-4-(7-(2-Amino-7-Fluorobenzo [d] Thiazol-4-yl) -6-Chloro-8-Fluoro-2-(((S)-1-Methylpyrrolidin-2-yl) Methoxy) Quinazolin-4-yl)-2-Methylpiperazin-1-yl) Prop-2-En-1-One] | > 10000 | > 10000 | 50 to 200 | > 10000 | – | – | – | – | – | – | < 100 | – | < 500 | < 500 |

More lines, now with the values ahead:

| IC50 at 20 min [1] [nM] | IC50 [2] [nM] | IC50 [3] [nM] | IC50 [4] [nM] | AUC compared to the comparative compound 1 ([5]; in words) | clearance rate Cl compared to the comparative compound 1 ([5]; in words) | pharmacokinetic properties in mice compared to comparative compound 1 ([5]; in words) | AUC(0-t) [5] [µM·h] | clearance [5] [mL/min/kg] | half-life [5] [h] | IC50 [6] [nM] | in vivo metabolic half-life compared to the comparative compound 1 ([5]; in words) | IC50 [7] [nM] | IC50 [8] [nM] | Compound |
| --- | --- | --- | --- | --- | --- | --- | --- | --- | --- | --- | --- | --- | --- | --- |
| > 10000 | > 10000 | < 50 | > 10000 | significantly increased | significantly lower | significantly better | 4.09 ± 0.373 | 6.35 ± 0.67 | 6.5 | < 100 | significantly longer | < 500 | < 500 | C=CC(=O)N1CCN(c2c(C#N)c(OC[C@@H]3CCCN3C)nc3c(F)c(-c4ccc(F)c5sc(N)nc45)c(Cl)cc23)CC1 [Example 3, 4-(4-Piperazinylacryloylpiperazin-1-yl)-7-(2-Amino-7-Fluorobenzo[d]Thiazol-4-yl)-6-Chloro-8-Fluoro-2-(((S)-1-Methylpyrrolidin-2-Yl)Methoxy)Quinoline-3-Cyano] |
| > 10000 | > 10000 | < 50 | > 10000 | – | – | significantly better | 1.29 ± 0.07 | 21.6 ± 1.05 | 1.3 | < 100 | – | < 500 | < 500 | C=CC(=O)N1CCN(c2c(C#N)c(N3CC(N(C)C)C3)nc3c(F)c(-c4ccc(F)c5sc(N)nc45)c(Cl)cc23)CC1 [Example 21, 4-(4-acryloyl Piperazin-1-yl)-7-(2-Amino-7-Fluorobenzo [d] Thiazol-4-yl) -6-Chloro-2-(3-(Dimethylamino) Azetidine-1-yl)-8-Fluoroquinolin-3 -Cyano] |
